Consider two compounds from publication PMC4121272, “Two β-Galactosidases from the Human Isolate Bifidobacterium breve DSM 20213: Molecular Cloning and Expression, Biochemical Characterization and Synthesis of Galacto-Oligosaccharides” (PLoS ONE, 2014).

Structures are written as SMILES.

The target of one assay is T1, β-gal I (Bifidobacterium breve, UniProt D4BLG2).
T1 construct: gene BIFBRE_02894; full length, C-terminal His6 tag kept (pET-21a), E. coli T7 Express with GroEL/GroES, IMAC; calculated 116,127 Da; homodimer 220 kDa; GH2; N-terminus from primer MQGKAKT, C-terminus before tag DVTLELI
Description: oNPG hydrolysis, o-nitrophenol release at […] nm, nonlinear regression. The class given is biochemical. As to conditions: competitive vs oNPG; 50 mM sodium phosphate pH 6.5, 30°C.

Another assay concerns the target T2, β-gal II (Bifidobacterium breve, UniProt D4BR09).
T2 construct: gene BIFBRE_04539; full length, C-terminal His6 tag kept (pET-21a), E. coli T7 Express with GroEL/GroES, IMAC; calculated 116,594 Da; homodimer 211 kDa; GH2; N-terminus from primer MNTTDDQ, C-terminus before tag DVNLELI
Described as above. The class given is biochemical. Particulars: competitive vs oNPG; 50 mM sodium phosphate pH 6.5, 30°C.

T2 sequence (D4BR09 entry or part of it): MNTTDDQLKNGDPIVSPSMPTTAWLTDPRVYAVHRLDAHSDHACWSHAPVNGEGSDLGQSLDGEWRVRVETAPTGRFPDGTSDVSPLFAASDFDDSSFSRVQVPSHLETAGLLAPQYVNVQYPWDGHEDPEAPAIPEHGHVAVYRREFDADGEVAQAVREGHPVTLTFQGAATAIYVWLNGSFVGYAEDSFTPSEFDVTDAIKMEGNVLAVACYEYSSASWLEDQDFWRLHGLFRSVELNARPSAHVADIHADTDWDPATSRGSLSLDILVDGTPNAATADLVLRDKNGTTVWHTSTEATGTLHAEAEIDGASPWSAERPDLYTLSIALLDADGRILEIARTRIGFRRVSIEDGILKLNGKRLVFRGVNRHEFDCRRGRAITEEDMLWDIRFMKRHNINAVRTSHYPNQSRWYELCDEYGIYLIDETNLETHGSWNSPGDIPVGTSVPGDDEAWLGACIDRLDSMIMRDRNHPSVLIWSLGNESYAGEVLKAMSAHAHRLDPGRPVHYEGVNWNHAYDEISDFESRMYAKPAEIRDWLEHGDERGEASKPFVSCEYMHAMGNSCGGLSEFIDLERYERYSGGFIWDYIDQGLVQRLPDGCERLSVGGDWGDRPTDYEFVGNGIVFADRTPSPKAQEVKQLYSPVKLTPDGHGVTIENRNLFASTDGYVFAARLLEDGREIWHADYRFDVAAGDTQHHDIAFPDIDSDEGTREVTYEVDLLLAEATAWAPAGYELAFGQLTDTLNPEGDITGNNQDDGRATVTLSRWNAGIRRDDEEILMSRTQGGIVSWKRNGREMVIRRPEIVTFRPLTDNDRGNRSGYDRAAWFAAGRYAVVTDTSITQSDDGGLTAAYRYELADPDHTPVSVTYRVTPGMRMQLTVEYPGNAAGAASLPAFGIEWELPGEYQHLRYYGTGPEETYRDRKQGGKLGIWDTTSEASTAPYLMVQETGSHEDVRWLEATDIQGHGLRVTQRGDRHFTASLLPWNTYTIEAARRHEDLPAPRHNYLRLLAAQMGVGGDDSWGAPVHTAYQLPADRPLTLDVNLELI
T1 sequence (D4BLG2 entry or part of it): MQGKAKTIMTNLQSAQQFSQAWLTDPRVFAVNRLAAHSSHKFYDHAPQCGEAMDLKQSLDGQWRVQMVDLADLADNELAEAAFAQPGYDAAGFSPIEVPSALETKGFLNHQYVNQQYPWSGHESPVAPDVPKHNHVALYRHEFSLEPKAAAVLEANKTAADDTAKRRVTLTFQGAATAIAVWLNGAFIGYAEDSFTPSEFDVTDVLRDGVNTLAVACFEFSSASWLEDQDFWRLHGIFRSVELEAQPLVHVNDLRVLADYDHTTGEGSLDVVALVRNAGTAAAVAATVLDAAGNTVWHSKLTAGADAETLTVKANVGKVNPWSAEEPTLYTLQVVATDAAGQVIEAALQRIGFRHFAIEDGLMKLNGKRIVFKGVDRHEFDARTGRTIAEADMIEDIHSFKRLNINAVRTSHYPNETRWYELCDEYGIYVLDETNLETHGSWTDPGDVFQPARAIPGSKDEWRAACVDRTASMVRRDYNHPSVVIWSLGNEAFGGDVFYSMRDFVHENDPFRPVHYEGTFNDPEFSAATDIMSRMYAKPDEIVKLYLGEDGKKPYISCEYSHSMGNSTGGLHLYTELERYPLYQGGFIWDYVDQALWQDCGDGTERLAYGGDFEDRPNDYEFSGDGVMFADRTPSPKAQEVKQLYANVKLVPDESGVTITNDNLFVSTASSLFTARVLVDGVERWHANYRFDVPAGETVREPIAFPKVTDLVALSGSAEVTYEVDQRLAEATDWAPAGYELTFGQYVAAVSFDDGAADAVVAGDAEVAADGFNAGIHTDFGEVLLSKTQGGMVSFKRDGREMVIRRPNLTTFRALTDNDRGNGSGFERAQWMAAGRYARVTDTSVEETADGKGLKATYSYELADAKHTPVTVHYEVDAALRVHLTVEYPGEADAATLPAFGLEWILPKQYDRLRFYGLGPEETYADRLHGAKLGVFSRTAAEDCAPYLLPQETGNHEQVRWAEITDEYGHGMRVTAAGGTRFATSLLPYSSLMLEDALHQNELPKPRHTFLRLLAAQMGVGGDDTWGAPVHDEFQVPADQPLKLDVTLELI

As for `OC[C@H]1OC(O)[C@H](O)[C@@H](O)[C@H]1O` (stereo partly drawn) [D-galactose], the results for the inhibition constant (Ki) on β-gal I and on β-gal II were 15 ± 3 mM and 34 ± 5 mM, respectively.

Take `OC[C@H]1OC(O)[C@H](O)[C@@H](O)[C@@H]1O` (stereo partly drawn) [D-glucose]: the Ki at β-gal II stood at 37 ± 4 mM.

What is called Ki is a measure of affinity in units of concentration, obtained from inhibition or displacement.
